Some test systems named below: MALME-3M melanoma; MDA-MB-231 breast; CAKI-1 renal; UACC-257 melanoma; M14 melanoma; 786-0 renal; IGROV1 ovarian; OVCAR-5 ovarian; RPMI-8226 leukemia; SK-MEL-5 melanoma.
Assay in all cases: growth of human tumour cells (NCI), 48 h

Structures are written as SMILES. “And” between values parts separate entries of the source, which are not always exact repeats. Equal values may be shown once.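 Five concentrations, 48 hours, 96-well plates. The concentration for 50% growth inhibition is given as GI50. Definition used: TGI = concentration required for complete inhibition of growth.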 Some results are limits rather than exact numbers.

Regarding `CN1CCN(C2=C(Cl)C(=O)c3ccccc3C2=O)CC1`, the GI50 with MALME-3M melanoma is 1.81 µM; in the assay with MDA-MB-231 breast, 1.84 µM; in the assay on CAKI-1 renal it was 1.77 µM; in the assay on UACC-257 melanoma, 1.73 µM; in the assay on M14 melanoma, 1.78 µM; with 786-0 renal, 1.77 µM. For the same compound, the GI50 in the assay on IGROV1 ovarian is 1.88 µM; with OVCAR-5 ovarian, 2.03 µM; in the assay with RPMI-8226 leukemia it was 3.09 µM; with SK-MEL-5 melanoma it was 1.55 µM. In addition, the TGI worked out at 3.51 µM in the assay with MALME-3M melanoma; 3.99 µM in the assay on MDA-MB-231 breast; 3.39 µM in the assay with CAKI-1 renal; 3.2 µM with UACC-257 melanoma; 3.23 µM in the assay on M14 melanoma; 3.39 µM in the assay with 786-0 renal. In addition, the TGI turned out to be 4.32 µM in the assay with IGROV1 ovarian, 4.18 µM in the assay on OVCAR-5 ovarian, 9.61 µM in the assay on RPMI-8226 leukemia and 2.93 µM in the assay on SK-MEL-5 melanoma.

Consider `NC(CSC(c1ccccc1)(c1ccccc1)c1ccccc1)C(=O)O` (stereo not given), for which the GI50 was 1.33 µM and 5.62 µM with MALME-3M melanoma; 1.08 µM in the assay on MDA-MB-231 breast; 15.2 µM and 7.17 µM in the assay on CAKI-1 renal; 1.18 µM and 0.789 µM in the assay with UACC-257 melanoma; 0.426 µM and 0.389 µM with M14 melanoma; 1.41 µM and 4.24 µM with 786-0 renal. For the same compound, the GI50 is 3.98 µM and 4.69 µM in the assay on IGROV1 ovarian; 4.28 µM in the assay with OVCAR-5 ovarian; 3.53 µM and 0.501 µM with RPMI-8226 leukemia; 0.601 µM and 0.41 µM with SK-MEL-5 melanoma. For the same compound, the TGI with MALME-3M melanoma was 49.2 µM and 39.2 µM and > 100 µM; in the assay on MDA-MB-231 breast, 4.65 µM and 6.45 µM; in the assay on CAKI-1 renal it was 51.6 µM and > 100 µM; in the assay on UACC-257 melanoma, 53.8 µM and 94.6 µM and > 100 µM; in the assay on M14 melanoma, 6.01 µM and 16.2 µM and 27.5 µM; in the assay with 786-0 renal, 70.3 µM and > 100 µM. Moreover, the TGI with IGROV1 ovarian is 84.8 µM and > 100 µM; with OVCAR-5 ovarian, 89.4 µM and > 100 µM; in the assay on RPMI-8226 leukemia, 37.3 µM and 22.4 µM and 20.7 µM; with SK-MEL-5 melanoma, 51.1 µM and 42.5 µM.

Regarding `NCC(=O)Nc1ccc(Cl)cc1C(=O)c1ccc[nH]1`, the TGI with MALME-3M melanoma, in the assay on MDA-MB-231 breast, in the assay with CAKI-1 renal, with UACC-257 melanoma, in the assay with M14 melanoma and in the assay with 786-0 renal was over 100 µM each time. Besides, the TGI with IGROV1 ovarian, with OVCAR-5 ovarian, with RPMI-8226 leukemia and with SK-MEL-5 melanoma was over 100 µM in each case.
